Reference: patent US6737383B1, “Herbicidal oxadiazolidines” (priority 1999, dated 2004)

What was measured:
Italian ryegrass = assay: Test E Italian ryegrass; format: in vivo, Lolium multiflorum; conditions: Preemergence
cocklebur = assay: Test B pre/postemergence cocklebur; format: in vivo, Xanthium strumarium
Outline: (§1)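 Herbicidal effect was estimated by eye on a ten-point control scale after plants spent twelve to sixteen days in a greenhouse following soil or foliar treatment. Foliar sprays targeted plants at one to four leaves; all doses were formulated in a non-phytotoxic solvent with surfactant.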

sugar beet = assay: Test B pre/postemergence sugar beet; format: in vivo, Beta vulgaris
Outline: as §1

blackgrass = assay: Test E blackgrass; format: in vivo, Alopecurus myosuroides; conditions: Preemergence
winter wheat [1] = assay: Test E winter wheat; format: in vivo, Triticum aestivum; conditions: Postemergence
Outline: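 Plants were grown under normal greenhouse practice; for postemergence, in sandy loam soil mixed 60:40 with potting mix, treated at the 1- to 4-leaf stage. The compound was in a non-phytotoxic solvent carrying a surfactant. After roughly 21 to 28 days plants were scored visually against untreated plants.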

wild oat = assay: Test E wild oat; format: in vivo, Avena fatua; conditions: Preemergence
rape = assay: Test B pre/postemergence rape; format: in vivo, Brassica napus
Outline: as §1

winter wheat [2] = assay: Test E winter wheat; format: in vivo, Triticum aestivum; conditions: Preemergence
green foxtail = assay: Test E green foxtail; format: in vivo, Setaria viridis; conditions: Preemergence
bamyardgrass = assay: Test B flood test barnyardgrass; format: in vivo, Echinochloa crus-galli
Outline: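 Each value is a visual injury score relative to controls, with 10 meaning complete control and 0 no effect. Evaluation took place twelve to sixteen days after the 2-leaf-stage plants were treated and kept in the greenhouse.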

winter barley = assay: Test E winter barley; format: in vivo, Hordeum vulgare; conditions: Preemergence
[3] = Rate 500 g/ha, 0 to 100 scale where 0 is no effect and 100 is complete control
[4] = Rate 1000 g/ha, 0 to 100 scale, 0 no effect, 100 complete control
[5] = Preemergence, Rate 62 g/ha, scale of 0 to 10 where 0 is no effect and 10 is complete control
[6] = Preemergence, Rate 250 g/ha, scale of 0 to 10 where 0 is no effect and 10 is complete control
[7] = Preemergence, Rate 500 g/ha, scale of 0 to 10 where 0 is no effect and 10 is complete control
[8] = Rate 62 g/ha, Postemergence, scale of 0 to 10 where 0 is no effect and 10 is complete control
[9] = Rate 125 g/ha, Postemergence, scale 0 to 10
[10] = Rate 500 g/ha, Postemergence, scale 0 to 10
[11] = Rate 125 g/ha, Preemergence, scale of 0 to 10 where 0 is no effect and 10 is complete control
[12] = Rate 500 g/ha, 0 to 100 scale, 0 is no effect, 100 is complete control
[13] = Rate 125 g/ha, Pre-emergence, flood test species, scale 0 to 10 where 0 is no effect and 10 is complete control
[14] = Rate 250 g/ha, Pre-emergence, flood-test species, scale 0 to 10, 0 is no effect, 10 is complete control
[15] = Rate 500 g/ha, Pre-emergence, flood test species, scale 0 to 10 (0 no effect, 10 complete control)
[16] = Rate 500 g/ha, 0 to 100 scale (0 no effect, 100 complete control)
[17] = Postemergence, Rate 125 g/ha, scale 0 to 10, 0 is no effect, 10 is complete control
[18] = Postemergence, Rate 250 g/ha, scale 0 to 10, 0 is no effect, 10 is complete control
[19] = Preemergence, Rate 62 g/ha, scale 0 to 10 (0 no effect, 10 complete control)
[20] = Rate 500 g/ha, Postemergence, scale 0 to 10, 0 no effect, 10 complete control

C#CCn1c(=O)on(C(=O)N(c2ccc(F)cc2)C(C)C)c1=O [Compound 212]
I. Ryegrass plant response rating (0 to 100 scale) (Italian ryegrass; Rate 250 g/ha): 60
Plant response rating, I. Ryegrass (Italian ryegrass; [3]): 70
Plant response rating, I. Ryegrass (Italian ryegrass; [4]): 70
Cocklebur plant response rating (cocklebur; [5]): 0
Cocklebur plant response rating (cocklebur; [6]): 0
Plant response rating, Cocklebur (cocklebur; [7]): 0
Cocklebur plant response rating (cocklebur; [8]): 2
Cocklebur plant response rating (cocklebur; [9]): 2
Plant response rating (0 to 10; 0 is no effect, 10 is complete control), Cocklebur (cocklebur; Rate 250 g/ha, Postemergence): 2
Cocklebur plant response rating (cocklebur; [10]): 5
Sugarbeets plant response rating (sugar beet; [5]): 0
Sugarbeets plant response rating (sugar beet; [6]): 5
Plant response rating, Sugarbeets (sugar beet; [7]): 8
Sugarbeets plant response rating (sugar beet; [8]): 0
Sugarbeets plant response rating (sugar beet; [9]): 0
Sugarbeets plant response rating (sugar beet; [11]): 5
Plant response rating (0 to 10; 0 is no effect, 10 is complete control), Sugarbeets (sugar beet; Rate 250 g/ha, Postemergence): 0
Sugarbeets plant response rating (sugar beet; [10]): 5
Blackgrass plant response rating (0 to 100 scale) (blackgrass; Rate 250 g/ha): 20
Plant response rating, Blackgrass (blackgrass; [3]): 50
Plant response rating, Blackgrass (blackgrass; [4]): 65
Plant response rating, Wheat (winter) (winter wheat [1]; Rate 1000 g/ha, 0 to 100 scale, 0 is no effect and 100 is complete control): 75
Plant response rating, Wheat (winter) (winter wheat [1]; [12]): 70
Wild oat plant response rating (0 to 100 scale) (wild oat; Rate 250 g/ha): 60
Plant response rating, Wild oat (wild oat; [3]): 70
Plant response rating, Wild oat (wild oat; [4]): 70
Rape plant response rating (rape; [5]): 0
Rape plant response rating (rape; [6]): 6
Plant response rating, Rape (rape; [7]): 8
Rape plant response rating (rape; [8]): 0
Rape plant response rating (rape; [9]): 0
Rape plant response rating (rape; [11]): 0
Plant response rating (0 to 10; 0 is no effect, 10 is complete control), Rape (rape; Rate 250 g/ha, Postemergence): 0
Rape plant response rating (rape; [10]): 3
Wheat (winter) plant response rating (0 to 100 scale) (winter wheat [2]; Rate 250 g/ha): 10
Plant response rating, Wheat (winter) (winter wheat [2]; [3]): 30
Plant response rating, Wheat (winter) (winter wheat [2]; [4]): 60
Green foxtail plant response rating (0 to 100 scale) (green foxtail; Rate 250 g/ha): 55
Plant response rating, Green foxtail (green foxtail; [3]): 65
Plant response rating, Green foxtail (green foxtail; [4]): 100
Barnyardgrass plant response rating (bamyardgrass; Rate 62 g/ha, headed Pre-emergence (flood test species), scale 0 to 10 (0 no effect, 10 complete control)): 0
Barnyardgrass plant response rating (bamyardgrass; [13]): 0
Barnyardgrass plant response rating (bamyardgrass; [14]): 0
Barnyardgrass plant response rating (bamyardgrass; [15]): 0
Barley (winter) plant response rating (0 to 100 scale) (winter barley; Rate 250 g/ha): 20
Plant response rating, Barley (winter) (winter barley; [3]): 40
Plant response rating, Barley (winter) (winter barley; [4]): 50

CC1CC1n1c(=O)on(C(=O)N(c2ccc(Cl)cc2)C(C)C)c1=O (stereo not shown) [Compound 369]
Plant response rating, I. Ryegrass (Italian ryegrass; Rate 250 g/ha, 0 to 100 scale): 50
Plant response rating, I. Ryegrass (Italian ryegrass; [16]): 65
Plant response rating, I. Ryegrass (Italian ryegrass; [4]): 70
Plant response rating, Cocklebur (cocklebur; [17]): 0
Plant response rating, Cocklebur (cocklebur; [18]): 0
Plant response rating, Cocklebur (cocklebur; [19]): 0
Cocklebur plant response rating (0 to 10 scale) (cocklebur; Preemergence, Rate 125 g/ha): 0
Cocklebur plant response rating (cocklebur; [6]): 0
Cocklebur plant response rating (cocklebur; [7]): 0
Cocklebur plant response rating (cocklebur; [8]): 0
Plant response rating, Cocklebur (cocklebur; [20]): 0
Plant response rating, Sugarbeets (sugar beet; [17]): 0
Plant response rating, Sugarbeets (sugar beet; [18]): 0
Plant response rating, Sugarbeets (sugar beet; [19]): 0
Sugarbeets plant response rating (0 to 10 scale) (sugar beet; Preemergence, Rate 125 g/ha): 0
Sugarbeets plant response rating (sugar beet; [6]): 2
Sugarbeets plant response rating (sugar beet; [7]): 4
Sugarbeets plant response rating (sugar beet; [8]): 0
Plant response rating, Sugarbeets (sugar beet; [20]): 2
Plant response rating, Blackgrass (blackgrass; Rate 250 g/ha, 0 to 100 scale): 85
Plant response rating, Blackgrass (blackgrass; [16]): 70
Plant response rating, Blackgrass (blackgrass; [4]): 100
Plant response rating, Wheat (winter) (winter wheat [1]; Rate 250 g/ha, 0 to 100 scale, 0 is no effect, 100 is complete control): 60
Plant response rating, Wheat (winter) (winter wheat [1]; Rate 1000 g/ha, 0 to 100 scale where 0 is no effect and 100 is complete control): 70
Plant response rating, Wheat (winter) (winter wheat [1]; [12]): 70
Plant response rating, Wild oat (wild oat; Rate 250 g/ha, 0 to 100 scale): 65
Plant response rating, Wild oat (wild oat; [16]): 70
Plant response rating, Wild oat (wild oat; [4]): 75
Plant response rating, Rape (rape; [17]): 0
Plant response rating, Rape (rape; [18]): 0
Plant response rating, Rape (rape; [19]): 0
Rape plant response rating (0 to 10 scale) (rape; Preemergence, Rate 125 g/ha): 0
Rape plant response rating (rape; [6]): 2
Rape plant response rating (rape; [7]): 5
Rape plant response rating (rape; [8]): 0
Plant response rating, Rape (rape; [20]): 3
Plant response rating, Wheat (winter) (winter wheat [2]; Rate 250 g/ha, 0 to 100 scale): 60
Plant response rating, Wheat (winter) (winter wheat [2]; [16]): 55
Plant response rating, Wheat (winter) (winter wheat [2]; [4]): 70
Plant response rating, Green foxtail (green foxtail; Rate 250 g/ha, 0 to 100 scale): 50
Plant response rating, Green foxtail (green foxtail; [16]): 85
Plant response rating, Green foxtail (green foxtail; [4]): 100
Plant response rating, Barnyardgrass (bamyardgrass; Postemergence (flood test), Rate 125 g/ha, scale 0 to 10, 0 is no effect, 10 is complete control): 0
Barnyardgrass plant response rating (bamyardgrass; Rate 62 g/ha, Postemergence (flood test species), scale of 0 to 10 where 0 is no effect and 10 is complete control): 0
Plant response rating, Barnyardgrass (0 to 10 scale, 0 is no effect, 10 is complete control) (bamyardgrass; Rate 62 g/ha, flood test species, Pre-emergence, visual evaluation after twelve to sixteen days): 0
Barnyardgrass plant response rating (bamyardgrass; [13]): 0
Barnyardgrass plant response rating (bamyardgrass; [14]): 0
Plant response rating, Barnyardgrass (bamyardgrass; Rate 500 g/ha, listed under Postemergence (flood test species), scale 0 to 10, 0 no effect, 10 complete control): 2
Barnyardgrass plant response rating (bamyardgrass; [15]): 0
Plant response rating, Barnyardgrass (bamyardgrass; flood test species, listed under Postemergence, Rate 250 g/ha, scale 0 to 10, 0 is no effect, 10 is complete control): 0
Plant response rating, Barley (winter) (winter barley; Rate 250 g/ha, 0 to 100 scale, 0 no effect, 100 complete control): 70
Plant response rating, Barley (winter) (winter barley; [16]): 50
Plant response rating, Barley (winter) (winter barley; [4]): 60
